For assay [1], the target named is C-C chemokine receptor type 5 (Homo sapiens, UniProt P51681). In words: Ability to displace [125I]-labeled MIP-1alpha from the C-C chemokine receptor type 5 expressed on CHO cell membranes.
For assay [2], the system named is Human immunodeficiency virus 1. In words: Antiviral activity against BAL strain of HIV using HeLa cell anti-infectivity assay. The class given is functional. As to conditions: Human immunodeficiency virus 1, HeLa.

Drawing on ChEMBL document CHEMBL1135079, “CCR5 antagonists: bicyclic isoxazolidines as conformationally constrained N-1-substituted pyrrolidines” (Bioorg Med Chem Lett, 2002), this text covers IC50 and IC90 for 16 molecules.

The term IC50 denotes the concentration that inhibits the measured activity by half. What is called IC90 is the point of the concentration-response curve where the effect stands at 90%.

C-C chemokine receptor type 5, sequence (P51681 whole entry): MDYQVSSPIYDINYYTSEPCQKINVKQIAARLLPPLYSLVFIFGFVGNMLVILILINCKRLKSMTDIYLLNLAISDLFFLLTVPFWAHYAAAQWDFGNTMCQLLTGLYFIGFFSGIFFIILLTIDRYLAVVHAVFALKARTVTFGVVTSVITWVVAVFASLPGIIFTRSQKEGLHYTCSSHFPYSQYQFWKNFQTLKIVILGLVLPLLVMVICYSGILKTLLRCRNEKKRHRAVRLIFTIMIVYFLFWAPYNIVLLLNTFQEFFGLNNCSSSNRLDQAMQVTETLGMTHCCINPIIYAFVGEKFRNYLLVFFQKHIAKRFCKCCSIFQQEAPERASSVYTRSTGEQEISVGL

In turn, `CCN(C(=O)OCc1ccccc1)C1CCN(C[C@@H]2[C@@H](c3ccccc3)CN3O[C@H](c4ccccc4)C[C@@H]23)CC1` returned an IC50 in assay [1] of 46 nM. This counts as double-digit nanomolar.
In assay [1], `c1ccc(C2CCN(C[C@@H]3[C@@H](c4ccccc4)CN4O[C@H](c5ccccc5)C[C@@H]34)CC2)cc1` returned a half-inhibitory concentration (IC50) of 30 nM. This IC50 lies about 1.5-fold lower than the previous one.
Consider `c1ccc(C2CCN(C[C@H]3CN4OC5(CCCCC5)C[C@H]4[C@@H]3c3ccccc3)CC2)cc1`, for which, in assay [1], the IC50 worked out at 43 nM.
Regarding `C=CCN(C(=O)OCc1ccc([N+](=O)[O-])cc1)C1CCN(C[C@H]2CN3OC4(CCCCC4)C[C@H]3[C@@H]2c2ccccc2)CC1`, in assay [2], the 90% effect level (IC90) was put at 33 nM. The molecule further had an IC50 in assay [1] of 0.13 nM.
In the case of `c1ccc(C2CCN(C[C@H]3CN4O[C@H](c5ccccc5)C[C@H]4[C@@H]3c3ccccc3)CC2)cc1`, in assay [1], the half-maximal inhibitory concentration (IC50) was 27 nM.
On the same count and under the same terms, the value for `C=CCN(C(=O)OCc1ccc([N+](=O)[O-])cc1)C1CCN(C[C@@H]2[C@@H](c3ccccc3)CN3OC4(CCCCC4)C[C@@H]23)CC1` was 14 nM.
As for `c1ccc(C2CCN(C[C@@H]3[C@@H](c4ccccc4)CN4OC5(CCCCC5)C[C@@H]34)CC2)cc1`, the IC50 in assay [1] was found to be 33 nM. This IC50 is about 2.4-fold higher than that of the molecule before.
`c1ccc(CCCC2CCN(C[C@H]3CN4OC5(CCCCC5)C[C@H]4[C@@H]3c3ccccc3)CC2)cc1`: the IC90 in assay [2] is above 300 nM. The molecule also registered an IC50 in assay [1] of 8 nM.
The molecule `C=CCN(C(=O)OCc1ccc([N+](=O)[O-])cc1)C1CCN(C[C@H]2CN(C(=O)C3CCCCC3)C[C@@H]2c2ccccc2)CC1` came in with an IC90 in assay [2] of 4 nM.
On to `C=CCN(C(=O)OCc1ccc([N+](=O)[O-])cc1)C1CCN(C[C@H]2CN3O[C@H](c4ccccc4)C[C@H]3[C@@H]2c2ccccc2)CC1`, for which the 90% effect concentration (IC90) in assay [2] was 300 nM. Moreover, the IC50 in assay [1] amounted to 2.5 nM.
On the same counts, the results for `c1ccc(CCCC2CCN(C[C@H]3CN4O[C@H](c5ccccc5)C[C@H]4[C@@H]3c3ccccc3)CC2)cc1` are above 300 nM and 5 nM.
On to `C=CCN(C(=O)OCc1ccc([N+](=O)[O-])cc1)C1CCN(C[C@@H]2[C@@H](c3ccccc3)CN3O[C@H](c4ccccc4)C[C@@H]23)CC1`, for which the IC90 in assay [2] is above 300 nM. In assay [1], the half-maximal inhibitory concentration (IC50) turned out to be 6 nM.
Take `CCN(C(=O)OCc1ccccc1)C1CCN(C[C@@H]2[C@@H](c3ccccc3)CN3OC4(CCCCC4)C[C@@H]23)CC1`: the IC50 in assay [1] worked out at 86 nM.
The same measure, in the same setting: the value for `c1ccc(CCCC2CCN(C[C@@H]3[C@@H](c4ccccc4)CN4O[C@H](c5ccccc5)C[C@@H]34)CC2)cc1` was 11 nM; that for `CCN(C(=O)OCc1ccccc1)C1CCN(C[C@H]2CN3O[C@H](c4ccccc4)C[C@H]3[C@@H]2c2ccccc2)CC1` was around 27 nM.
The molecule `CCN(C(=O)OCc1ccccc1)C1CCN(C[C@H]2CN3OC4(CCCCC4)C[C@H]3[C@@H]2c2ccccc2)CC1` gave an IC90 in assay [2] above 300 nM. Moreover, in assay [1], the IC50 is 5 nM.
